Data reported in patent US8703483B2, “Reagents and methods for using human embryonic stem cells to evaluate toxicity of pharmaceutical compounds and other chemicals” (Wisconsin Alumni Research Foundation, priority 2006, dated 2014).

System: human embryonic stem cells
Experiment: Metabolite profiling (LC/ESI-TOF mass spectrometry) of extracellular media of hESCs treated with alcohol
Format: cell-based
Details: ETOH 0.3, 24 H
From the text: Binned masses were annotated in silico by querying the neutral masses in several different databases. These databases included Metlin, Biological Magnetic Resonance Data Bank (BMRB), NIST Chemistry WebBook, and the Human Metabolome Database. A mass was considered identified when its neutral mass was within 10 ppm of a known compound annotated in one of the databases listed above.

Q: With `CCO` [ETOH] as the compound, how does the “Fold: 5-Methoxytryptophan, mass 234.125, RT 47.0879” value read?
A: −1.632 fold

Q: And the “Fold: GABA analogue, mass 171.1244, RT 26.70635” value?
A: 3.755 fold

Q: What about the “Fold: Hexylamine, mass 101.1201, RT 10.21225” value of the same compound?
A: 2.192 fold

Q: And the “Fold: N-Methyl-2-pyrrolidinone, mass 99.0689, RT 15.48433” value?
A: 1.468 fold

Q: And the “Fold: Unknown, mass 83.0372, RT 85.57399” value?
A: 2.472 fold

Q: What about the “Fold: Unknown, mass 99.1043, RT 52.01225” value of the same compound?
A: 3.331 fold

Q: What about the “Fold: Unknown, mass 130.9541, RT 88.64043” value of the same compound?
A: 2.025 fold

Q: And the “Fold: Unknown, mass 148.0052, RT 3.958833” value?
A: −1.73 fold

Q: And the “Fold: Unknown, mass 153.0811, RT 27.80141” value?
A: −1.6976 fold

Q: And the “Fold: Unknown, mass 161.0805, RT 14.22357” value?
A: −6.435 fold

Q: What about the “Fold: Unknown, mass 178.5546, RT 28.52393” value of the same compound?
A: −2.764 fold

Q: And the “Fold: Unknown, mass 194.0836, RT 22.61355” value?
A: −1.703 fold

Q: And the “Fold: Unknown, mass 222.0401, RT 27.57188” value?
A: −2.112 fold

Q: And the “Fold: Unknown, mass 223.119, RT 13.6845” value?
A: −2.74 fold

Q: What about the “Fold: Unknown, mass 229.2025, RT 32.9941” value of the same compound?
A: −1.377 fold

Q: And the “Fold: Unknown, mass 237.0041, RT 3.673694” value?
A: 2.989 fold

Q: What about the “Fold: Unknown, mass 239.9592, RT 5.176232” value of the same compound?
A: 1.64 fold

Q: What about the “Fold: Unknown, mass 267.2543, RT 40.75868” value of the same compound?
A: −1.496 fold

Q: What about the “Fold: Unknown, mass 271.9364, RT 4.86619” value of the same compound?
A: 4.07 fold

Q: What about the “Fold: Unknown, mass 275.1193, RT 22.86183” value of the same compound?
A: −2.237 fold

Q: What about the “Fold: Unknown, mass 288.2632, RT 75.76147” value of the same compound?
A: 1.969 fold

Q: What about the “Fold: Unknown, mass 294.1531, RT 24.21651” value of the same compound?
A: −1.892 fold

Q: And the “Fold: Unknown, mass 298.1537, RT 66.35884” value?
A: 3.758 fold

Q: And the “Fold: Unknown, mass 299.1929, RT 19.66398” value?
A: −1.571 fold

Q: And the “Fold: Unknown, mass 303.8875, RT 4.954547” value?
A: 2.07 fold

Q: What about the “Fold: Unknown, mass 313.199, RT 44.09424” value of the same compound?
A: 2.292 fold

Q: And the “Fold: Unknown, mass 324.1666, RT 30.19245” value?
A: −1.593 fold

Q: And the “Fold: Unknown, mass 337.2012, RT 8.542672” value?
A: 1.287 fold

Q: And the “Fold: Unknown, mass 340.9252, RT 5.033976” value?
A: −1.836 fold

Q: What about the “Fold: Unknown, mass 342.1482, RT 68.02448” value of the same compound?
A: −1.853 fold

Q: What about the “Fold: Unknown, mass 360.1321, RT 18.50245” value of the same compound?
A: −2.289 fold

Q: And the “Fold: Unknown, mass 362.2787, RT 83.72506” value?
A: −2.542 fold

Q: What about the “Fold: Unknown, mass 378.2956, RT 41.28494” value of the same compound?
A: 1.636 fold

Q: What about the “Fold: Unknown, mass 393.1889, RT 15.90129” value of the same compound?
A: −1.511 fold

Q: And the “Fold: Unknown, mass 440.0284, RT 54.46495” value?
A: 2.51 fold

Q: And the “Fold: Unknown, mass 444.2237, RT 51.58546” value?
A: 2.242 fold

Q: And the “Fold, Unknown metabolite, Mass 820.8181” value (retention time 4.613879)?
A: −1.851

Q: What about the “Fold, Unknown metabolite, Mass 711.8344” value (retention time 4.826824) of the same compound?
A: −2.256

Q: And the “Fold, Unknown metabolite, Mass 913.8074” value (retention time 5.217833)?
A: −1.885

Q: And the “Fold, Unknown metabolite, Mass 888.8041” value (retention time 5.259716)?
A: 1.222

Q: And the “Fold, Unknown metabolite, Mass 922.0048” value (retention time 5.387775)?
A: −2.755

Q: What about the “Fold, Unknown metabolite, Mass 555.8505” value (retention time 5.742094) of the same compound?
A: −1.518

Q: And the “Fold, metabolite Ethanesulfonic acid, Mass 579.2519” value (retention time 5.903169)?
A: −1.48

Q: And the “Fold, metabolite Oxidized glutathione, Mass 612.1509” value (retention time 8.056862)?
A: −1.595

Q: And the “Fold, Unknown metabolite, Mass 485.204” value (retention time 10.8217)?
A: 2.038

Q: What about the “Fold, Unknown metabolite, Mass 482.1942” value (retention time 10.82859) of the same compound?
A: −1.528

Q: What about the “Fold, Unknown metabolite, Mass 666.3836” value (retention time 16.3338) of the same compound?
A: −1.371

Q: And the “Fold, metabolite L-Urobilinogen, Mass 596.3543” value (retention time 25.14927)?
A: 1.835

Q: And the “Fold, Unknown metabolite, Mass 464.225” value (retention time 25.3287)?
A: −1.717

Q: And the “Fold, Unknown metabolite, Mass 455.2052” value (retention time 28.27806)?
A: −2.509

Q: And the “Fold, Unknown metabolite, Mass 447.2509” value (retention time 29.86415)?
A: 2.103

Q: What about the “Fold, Unknown metabolite, Mass 444.2789” value (retention time 30.05687) of the same compound?
A: −1.835

Q: What about the “Fold, Unknown metabolite, Mass 707.3933” value (retention time 30.43889) of the same compound?
A: −1.792

Q: What about the “Fold, Unknown metabolite, Mass 466.2921” value (retention time 30.46172) of the same compound?
A: −1.959

Q: What about the “Fold, Unknown metabolite, Mass 488.305” value (retention time 30.83472) of the same compound?
A: −2.185

Q: What about the “Fold, Unknown metabolite, Mass 488.8071” value (retention time 30.88032) of the same compound?
A: −1.92

Q: And the “Fold, Unknown metabolite, Mass 510.3182” value (retention time 31.20706)?
A: −2.264

Q: And the “Fold, Unknown metabolite, Mass 510.8202” value (retention time 31.22083)?
A: −2.045

Q: What about the “Fold, Unknown metabolite, Mass 523.8187” value (retention time 31.53434) of the same compound?
A: −2.173

Q: And the “Fold, Unknown metabolite, Mass 591.3789” value (retention time 31.54325)?
A: −1.982

Q: What about the “Fold, Unknown metabolite, Mass 532.8335” value (retention time 31.58889) of the same compound?
A: −2.169

Q: And the “Fold, Unknown metabolite, Mass 554.3444” value (retention time 31.8519)?
A: −2.37

Q: What about the “Fold, Unknown metabolite, Mass 554.8471” value (retention time 31.891) of the same compound?
A: −2.297

Q: And the “Fold, Unknown metabolite, Mass 576.3582” value (retention time 32.15777)?
A: −2.209

Q: What about the “Fold, Unknown metabolite, Mass 541.3274” value (retention time 32.24719) of the same compound?
A: −2.123

Q: And the “Fold, Unknown metabolite, Mass 611.871” value (retention time 32.70236)?
A: −2.192

Q: And the “Fold, Unknown metabolite, Mass 620.8861” value (retention time 32.73907)?
A: −2.321

Q: What about the “Fold, Unknown metabolite, Mass 642.397” value (retention time 32.95522) of the same compound?
A: −2.211

Q: What about the “Fold, Unknown metabolite, Mass 677.9101” value (retention time 33.48766) of the same compound?
A: −2.647

Q: And the “Fold, Unknown metabolite, Mass 463.2914” value (retention time 33.5733)?
A: −1.665

Q: And the “Fold, Unknown metabolite, Mass 466.615” value (retention time 33.68894)?
A: −3.279

Q: What about the “Fold, Unknown metabolite, Mass 774.4767” value (retention time 34.33545) of the same compound?
A: −2.342

Q: And the “Fold, Unknown metabolite, Mass 521.9924” value (retention time 34.35986)?
A: −1.584

Q: What about the “Fold, Unknown metabolite, Mass 751.4193” value (retention time 35.028) of the same compound?
A: −1.703

Q: And the “Fold, metabolite Neu5Acalpha2-3Galbeta1-4Glcbeta-Sp, Mass 702.2497” value (retention time 40.84822)?
A: 1.283

Q: And the “Fold, Unknown metabolite, Mass 449.2611” value (retention time 44.98056)?
A: −3.471

Q: And the “Fold, Unknown metabolite, Mass 467.3804” value (retention time 46.51446)?
A: −2.135

Q: What about the “Fold, Unknown metabolite, Mass 518.3914” value (retention time 46.57666) of the same compound?
A: −2.707

Q: What about the “Fold, Unknown metabolite, Mass 539.4374” value (retention time 51.52268) of the same compound?
A: −1.93

Q: What about the “Fold, Unknown metabolite, Mass 446.0431” value (retention time 54.8719) of the same compound?
A: −2.221

Q: And the “Fold, Unknown metabolite, Mass 707.4296” value (retention time 56.18269)?
A: −2.434

Q: And the “Fold, Unknown metabolite, Mass 611.4952” value (retention time 56.3513)?
A: −1.9811

Q: And the “Fold, Unknown metabolite, Mass 765.5211” value (retention time 69.32865)?
A: 1.884

Q: What about the “Fold, Unknown metabolite, Mass 482.3062” value (retention time 72.7735) of the same compound?
A: −2.618
